Test results taken from PubChem BioAssay AID179 (DTP/NCI, 2004).
Activity calls are given as the source filed them.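 The calls were made as follows: active = compounds giving half or more protection of infected cells from virus-caused growth loss, again on retest; inactive = the rest.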 Where a SMILES comes first, the peptide text is derived from it. The star is where a group is joined. OSu = O=C1CCC(=O)N1O*

System: CEM cells HIV-1 protection, formazan growth assay
Assay: NCI AIDS Antiviral Assay
Conditions: for IC50: measured here: growth of uninfected CEM cells
Summary of the method: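 Protection of CEM cells against HIV-1 measured as cell growth via soluble formazan read-out, with five concentrations tested on both infected and uninfected cells; failure to protect may reflect toxicity.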

| SMILES | EC50 [µM] | IC50 [µM] | outcome |
| --- | --- | --- | --- |
| CCOC(=O)C(NC(=O)CC)(N1CCN(c2cc3c(cc2F)c(=O)c(C(=O)O)cn3C2CC2)CC1)C(F)(F)F (stereo not given) | > 200 | 126 |  |
| CC1=N/C(=C\c2ccco2)C(=O)O1 | > 537 | > 537 |  |
| O=C1c2ccc(O)cc2OC(c2cc(O)c(O)c(O)c2)C1O (stereo not given) | > 200 | 11.7 |  |
| Cc1ccc(SCC(OCn2cnc3c(N)ncnc32)[C@H](C)F)cc1 (stereo not given in full) | > 200 | 191 |  |
| C#CCC(O)c1ccc(OC)c(OCc2ccccc2)c1 (stereo not given) | > 200 | 69.2 |  |
| O=C(NO)c1ccc(O)c(O)c1 | > 1480 | 74.1 |  |
| NC(CSS(=O)(=O)O)=NC1CCCCC1 | > 200 | 138 |  |
| O=C1COCC(=O)N1 | > 2190 | > 2190 |  |
| Brc1ccc2c(-c3csc(-c4c[nH]c5cc(Br)ccc45)n3)c[nH]c2c1 | > 200 | 52.5 |  |
| O=S(=O)(N/N=C1\CC2CCC1C2)c1ccccc1 (stereo not given) | > 200 | > 200 |  |
| O=C1Nc2cc([N+](=O)[O-])ccc2C(=O)N2CCC[C@@H]12 | > 200 | > 200 |  |
| CCN(CC)CCN1C(=O)c2cccc3cc([N+](=O)[O-])cc(c23)C1=O | > 200 | 1.48 |  |
| c1nn2cnnc2s1 |  |  | inactive |
| O=C1CCCC2=C1CC1=C(CCCC1=O)N2c1cccc([N+](=O)[O-])c1 | > 186 | 170 |  |
| CC(=O)Nc1ccc(C(=O)NN2C(=O)C(Cl)C2c2ccc(Cl)cc2)cc1 (stereo not given) | > 200 | > 200 |  |
| O=C1CC2CCCC(C1)S2=O (stereo not given) | > 1450 | > 1450 |  |
| O=C1NC(=NC2CCCCC2)C2(CCN(CCCC3(c4ccc(F)cc4)OCCO3)CC2)N1c1ccccc1 | > 200 | 102 |  |
| CC(C)/C(Cl)=N\OC(=O)Nc1ccc(S(N)(=O)=O)cc1 | > 200 | 9.77 |  |
| NC(=O)c1c[se]c(C2OC(CO)C(O)C2O)n1 (stereo not given) |  |  | inactive |
| CC(=O)OCC1OC(Sc2nc(-c3ccccc3)c(C#N)c(=O)n2C2OC(COC(C)=O)C(OC(C)=O)C(OC(C)=O)C2OC(C)=O)C(OC(C)=O)C(OC(C)=O)C1OC(C)=O (stereo not given) | > 151 | 19.5 |  |
| Cc1cc2cccc(Cl)c2nc1C(=O)c1ccccc1 | > 6.61 | > 6.61 |  |
| CC(C)=[CH][Sb]([Br])([CH]=C(C)C)([CH]=C(C)C)[CH]=C(C)C | > 589 | 3.02 |  |
| Cn1c(=Nc2ccc(Cl)cc2)sc2ccccc21 | > 200 | 32.4 |  |

| SMILES | EC50 [µM] | IC50 [µM] | outcome |
| --- | --- | --- | --- |
| c1ccc(N2N=NC3C4CC(C5c6ccccc6C45)C32)cc1 (stereo not given) |  |  | inactive |
| N=C1N(/N=C/c2ccccn2)C(=Nc2ccccc2)C(=S)N1c1ccccc1 | > 200 | 5.13 |  |
| Cc1ccc(C)n1-c1ccccc1C1SCCCS1 | > 200 | 195 |  |
| C/C=C1/CN2CC[C@]34C=C(CO)C1CC23Nc1ccccc14 (stereo not given in full) | > 123 | > 123 |  |
| Cc1cc(C)nc(NS(=O)(=O)c2ccc(NC(=O)c3ccc(Cl)c4c(Nc5ccc(S(=O)(=O)Nc6nc(C)cc(C)n6)cc5)c5ccccc5nc34)cc2)n1 | > 45.7 | 24.5 |  |
| Cc1cccc(C(C)C)c1NC(=O)C(=O)C(C(=O)c1ccccc1F)C1OC(=O)c2ccccc21 (stereo not given) | > 200 | 15.8 |  |
| COc1cc(C2c3cc4c(cc3OC(NN)C2C)OCO4)cc(OC)c1OC (stereo not given) | > 200 | 1 |  |
| Cc1ccc2c3ccc4c(c3n(C)c2c1)C(=O)C=CC4=O | > 100 | 1.82 |  |
| CN(C)c1ccc(/C=C2\C=Cc3ccccc32)cc1 |  |  | inactive |
| N=C(c1ccccc1)N1CCCCC1 |  |  | inactive |
| Oc1ccccc1C=NCCSSCCN=Cc1ccccc1O |  |  | inactive |
| NNc1c(Cl)c(=O)n(-c2ccccc2)[nH]c1=O | > 200 | > 200 |  |
| Cc1ccc(SS(=O)(=O)c2ccc([N+](=O)[O-])cc2)cc1 | > 60.3 | 40.7 |  |
| C[n+]1c2ccccc2c(CNC(CCC(N)=O)C(=O)O)c2ccccc21 (stereo not given) |  |  | inactive |
| CC1CC2OC(=N)C1(C#N)C2(C#N)C#N (stereo not given) | > 200 | 10.5 |  |
| COc1ccc(/C(Br)=C2\OC(=O)c3ccccc32)cc1 | > 200 | > 200 |  |
| COC(=O)CC1C(COC(C)=O)OC(n2ccc(=O)[nH]c2=O)C1OC(C)=O (stereo not given) | 0.537 | > 200 |  |
| C=CC1(c2ccc3ccccc3c2)OCC(CC)O1 (stereo not given) | > 200 | 87.1 |  |
| Cc1cc(S(=O)(=O)Nc2nc3ccccc3[nH]2)c(S)cc1Cl | > 200 | 55 |  |
| CC(C)C1CCC(=O)CC1CCCCC1CC(=O)CC1O[Si](C)(C)C(C)(C)C (stereo not given) | > 200 | 7.24 |  |
| NCCCCC(NC(=O)C(N)Cc1ccc(O)cc1)C(=O)NC(Cc1ccc(O)cc1)C(=O)NC(CCCCN)C(=O)ON1C(=O)CCC1=O (stereo not given) (H-YKYK-OSu; configuration not given here) | > 200 | > 200 |  |
| CC(C)CC(NC(=O)C(CC(=O)O)NC(=O)C(CO)NC(=O)C(CCCCN)NC(=O)C1CCCN1C(=O)C(CC(C)C)NC(=O)C(CO)NC(=O)CNC(=O)C(N)CCC(=O)O)C(=O)NC(CCCN=C(N)N)C(=O)O (stereo not given) (H-EGSLPKSDLR-OH; configuration not given here) | > 56.2 | > 56.2 |  |
| O=C(Nc1ccc(N=Nc2ccccc2)cc1)Sc1ccccc1C(=O)O |  |  | inactive |

| SMILES | EC50 [µM] | IC50 [µM] | outcome |
| --- | --- | --- | --- |
| COc1cccc2c1C(=O)c1c(O)c3c(c(O)c1C2=O)C[C@@](O)(C(C)=O)C[C@@H]3OC1CC(O)C(O)C(C)O1 (stereo not given in full) | > 0.2 | 0.0107 |  |
| COC(=O)n1nnc2ncccc21 | > 200 | > 200 |  |
| Cc1ccc2c(c1)C(c1ccccc1)C1COC(=O)C1O2 (stereo not given) | > 93.3 | 5.25 |  |
| COC(=O)C12CC(c3ccccc31)C1C(=O)OC(=O)C12 (stereo not given) | > 132 | > 132 |  |
| OC1(c2ccccc2)CC(c2ccccc2)c2ccccc2O1 (stereo not given) | > 200 | 31.6 |  |
| CC(=O)OC1(C(C)=O)CC2(c3ccccc3)OC1(c1ccccc1)c1ccccc12 (stereo not given) |  |  | inactive |
| Clc1ccc2c(c1)Oc1ccccc1C=N2 | > 363 | 6.31 |  |
| O=S1(=O)OCCOS(=O)(=O)C1Cc1ccccc1 | > 447 | 50.1 |  |
| O=C(O)CN1CCN2CCCCCCCCN(CC1)CCN(CC(=O)O)CC2 | > 200 | 13.2 |  |
| O=C(O)C1=Cc2cccc3cccc(c23)C1=O |  |  | inactive |
| O=C1NC2(CCCCC2)C2CCCCC=C12 (stereo not given) |  |  | inactive |
| Cc1ccccc1C1(O)c2ccccc2Oc2ccccc21 | > 200 | 13.8 |  |
| CC(C)=CCC[C@@H](C)C1=CC(=O)C(C)=C(O)C1=O | > 2 | 1.02 |  |
| S=C1NC(c2ccco2)N2C(=S)NC(c3ccco3)N12 (stereo not given) |  | > 200 | inactive |
| Cc1cc(OCC(=O)N/N=C/C(Br)=C/c2ccccc2)nc(SCC(=O)N/N=C/C(Br)=C/c2ccccc2)n1 | > 200 | 17.8 |  |
| O=C1C2=C(c3ccccc31)C(c1ccc(Cl)cc1)NC(=S)N2 (stereo not given) | > 57.5 | 29.5 |  |
| O=C1N[C@@H]2C(=C[C@H](O)[C@@H](O)[C@H]2O)c2cc3c(c(O)c21)OCO3 |  |  | inactive |
| CCOC(=O)NC1=NCCS1 |  |  | inactive |
| COc1ccc2[nH]c(C(=O)N3CC(CCl)c4ccc(N)cc43)cc2c1 (stereo not given) | > 2 | 0.389 |  |
| O=C(O)CS(=O)(=O)O | > 200 | > 200 |  |
| CCCCCCC(O)CC[C@H]1CCC[C@@H](C)N1 (stereo not given in full) |  |  | inactive |
| COc1ccc(-c2c3ccccc3c(-c3ccc(OCCCCCBr)cc3)c3ccccc23)cc1 | > 2.75 | > 2.75 |  |
| CCC[CH2][Sn]1([CH2]CCC)[O]Cc2nc(C)ccc2[O]1 | > 14.1 | 3.16 |  |

| SMILES | EC50 [µM] | IC50 [µM] | outcome |
| --- | --- | --- | --- |
| C=CCn1c(C23CC4CC(CC(C4)C2)C3)n[nH]c1=S | > 1000 | 30.9 |  |
| Cc1c(C(=O)NCCO)[n+](=O)c2cc(Cl)ccc2n1[O-] | > 832 | 56.2 |  |
| CN(N)c1ncnc2c1cnn2C | > 209 | > 209 |  |
| COc1cc2c(c([N+](=O)[O-])c1)NC(=O)CC(C)S2 (stereo not given) | 95.5 | 148 |  |
| COC(=O)C1C(C(=O)OC)C2N(c3ccccc3)C=NN2C1C(=O)c1ccccc1 (stereo not given) | 182 | > 200 |  |
| [N-]=[N+]=N[C@H]1C[C@@H](CO)O[C@H]1n1cnc2c(N)ncnc21 |  |  | inactive |
| c1ccc2c(Nc3ncco3)cccc2c1 | > 200 | 162 |  |
| COc1cc2c(cc1Oc1c(O)c(OC)cc3c1C(C)N(C)CC3)C(C)N(C)CC2 (stereo not given) | > 200 | > 200 |  |
| CC(Cl)CN1COc2c3c(c4ccccc4c2C1)CN(CC(C)Cl)CO3 (stereo not given) | > 91.2 | 27.5 |  |
| CC1=CC(=C(c2ccc(N)c(S(=O)(=O)O)c2)c2ccc(N)c(S(=O)(=O)O)c2)C=C(S(=O)(=O)O)C1=N |  |  | inactive |
| Cc1ccc(OCCn2cc(Nc3ccccc3)c(=O)n(CCOc3ccc(C)cc3)c2=O)cc1 | > 200 | 174 |  |
| COc1ccc(-c2onc(-c3c(C)cc(C)cc3C)c2C2=NCCCN2)cc1 | > 50.1 | > 50.1 |  |
| CC(=O)[O-].Cc1ccnc(NS(=O)(=O)c2ccc(N=Cc3ccccc3[O-])cc2)n1.Cc1ccnc(NS(=O)(=O)c2ccc(N=Cc3ccccc3[O-])cc2)n1.[Cu+2] | > 200 | 5.62 |  |
| O=c1[nH]c(=O)n(C2OC(CO)C(O)C(F)C2O)cc1F (stereo not given) | 186 | > 200 |  |
| CCOC(=O)C(Cc1cc(OC)c(CC(C(=O)OCC)C(=O)OCC)cc1OC)C(=O)OCC |  |  | inactive |
| NCCSSCc1ccccc1CSSCCN |  |  | inactive |
| O=c1c(-c2cccc(O)c2)coc2cc(O)c(O)cc12 | > 200 | 10.5 |  |
| O=C(Nc1ccccc1)Nc1ccccn1 | 166 | > 200 |  |
| COc1ccc2nc(N/N=C/C(C)=N/Nc3cc(C)c4cc(OC)ccc4n3)cc(C)c2c1 | > 100 | 14.5 |  |
| CCN(CC)c1ccc2cc(-c3nc4ccccc4c(=O)[nH]3)c(=N)oc2c1 | > 100 | > 100 |  |
